Measurements taken from publication PMC6694038, “Pharmacogenomic–pharmacokinetic study of selective estrogen-receptor modulators with intra-patient dose escalation in breast cancer” (Breast Cancer (Tokyo, Japan), 2019).

Assays:
[1] = Plasma concentrations of TAM, TOR and their metabolites by LC–MS/MS (screening study)
[2] = weighting of plasma concentration; cited from earlier work
[3] = Hot flush grade (CTCAE v3.0) in the screening study; assay type: in vivo, breast cancer patients
Excerpt: We obtained data on compliance and the grade of hot flush as defined by the Common Terminology Criteria for Adverse Events v3.0.

[4] = patients on TAM 20 mg a day, N=182
[5] = 14 patients of the dose-escalation study

SMILES	Plasma concentration, max ([1]; patients on TOR 40 mg, N=61) [ng/mL]	Plasma concentration, mean ([1]; patients on TOR 40 mg, N=61) [ng/mL]	Plasma concentration, median ([1]; patients on TOR 40 mg, N=61) [ng/mL]	Plasma concentration, min ([1]; patients on TOR 40 mg, N=61) [ng/mL]	Plasma concentration, max ([1]; patients on TOR 120 mg, N=27) [ng/mL]	Plasma concentration, mean ([1]; patients on TOR 120 mg, N=27) [ng/mL]	Plasma concentration, median ([1]; patients on TOR 120 mg, N=27) [ng/mL]	Plasma concentration, min ([1]; patients on TOR 120 mg, N=27) [ng/mL]	In vitro activity factor in the total activity of TOR (TOR = 1.0) [2]	Plasma concentration, max [1, 4] [ng/mL]	Plasma concentration, mean [1, 4] [ng/mL]	Plasma concentration, median [1, 4] [ng/mL]	Plasma concentration, min [1, 4] [ng/mL]	In vitro activity factor in the total activity of TAM (TAM = 1.0) [2]	further results
CNCCOc1ccc(/C(=C(/CCCl)c2ccccc2)c2ccccc2)cc1 [NDM-TOR]	2820.0	1373.7	1350.0	601.0	5430.0	3594.4	3500.0	1380.0	0.764						
CC/C(=C(\c1ccccc1)c1ccc(OCCNC)cc1)c1ccccc1 [NDM-TAM]										1090.0	283.2	271.0	59.2	0.655	
CC/C(=C(\c1ccc(O)cc1)c1ccc(OCCN(C)C)cc1)c1ccccc1 [4OH-TAM]										9.5	3.6	3.3	0.2	116	
CC/C(=C(\c1ccccc1)c1ccc(OCCN(C)C)cc1)c1ccccc1 [TAM, tamoxifen]										552.0	174.7	163.0	38.5	1.0	Hot flush grade 0 on TAM 20 mg, % of patients [3, 5]: 57.1%; Hot flush grade 0 on TAM 20 mg, patients [3, 5]: 8; Hot flush grade 1 on TAM 20 mg, % of patients [3, 5]: 28.6%; Hot flush grade 1 on TAM 20 mg, patients [3, 5]: 4; Hot flush grade 2 on TAM 20 mg, % of patients [3, 5]: 14.3%; Hot flush grade 2 on TAM 20 mg, patients [3, 5]: 2; Hot flush grade 0, % of patients ([3]; TAM 20 mg, screening study): 56.8%; Hot flush grade 1, % of patients ([3]; TAM 20 mg, screening study): 31.4%; Hot flush grade 1, patients ([3]; TAM 20 mg, screening study): 58; Hot flush grade 2, % of patients ([3]; TAM 20 mg, screening study): 11.4%; Hot flush grade 2, patients ([3]; TAM 20 mg, screening study): 21; Hot flush grade 3, % of patients ([3]; TAM 20 mg, screening study): 0.5%; Hot flush grade 3, patients ([3]; TAM 20 mg, screening study): 1
CNCCOc1ccc(/C(=C(/CCCl)c2ccccc2)c2ccc(O)cc2)cc1 [4OH-NDM-TOR]	68.8	15.4	13.4	4.5	52.9	32.6	34.3	11.5	91.9						
CN(C)CCOc1ccc(/C(=C(/CCCl)c2ccccc2)c2ccc(O)cc2)cc1 [4OH-TOR]	16.4	8.1	6.9	2.4	31.2	16.0	14.6	5.5	98.0						
